Results on one substance are retold here after patent publication US6630449B2, “Method for reducing the effect of nicotine addiction and dependancy” (priority 2000, dated 2003).

The subject of assay [1] is smoker (craving for nicotine). The assay is described as follows: Treatment of smokers with corticotrophin injection to reduce craving for nicotine (case examples). The class given is in vivo, human. From the text: Referring to the FIG. a suitable and preferred process for the treatment of smokers includes nutritional and relaxant supplements, corticotrophin administration, and counseling. On day one, the smoker comes into a clinic for orientation 10. At the time of the first office visit, a medical history is taken and a physical given 12 is taken by the physician, and a determination is made as to whether a given smoker is a satisfactory candidate for treatment 14. […] If the smoker is allowed to participate in the program, the physician will write a prescription of r the needed medications. Then, immediately before the smoker leaves the clinic, a pharmacist fills their prescription for and dispenses to the smoker their supply of nutrition supplements and mild relaxants 16. The next day, day two, the smoker has the first BMS 18. Then on day three the smoker comes back to the clinic and receives the first injection of corticotrophins 20 from the physician. This is the time and place the smoker gives up smoking 22. On day five the smoker participates in a second BMS 24. On day seven, the smoker returns to receive the second injection of corticotrophins 26 from the physician. On day fourteen the smoker, now presumably a former smoker, returns for the last BMS 28. […]

Assay [2] has as its system smokers (craving for nicotine). The following applies: cited from earlier work; for time after first administration at which the effect starts to wear off / duration of nicotine craving relief: after injection.

Read-outs that look alike come from different tables or passages of the source.

As for Adrenocorticotrophin hormone, the smoking cessation outcome in assay [1] (about 250 pounds, three packs a day, one injection of 160 units with counseling and nutritional supplements, no second injection) was “ceased smoking permanently”; in assay [1] (comparative example, about 170 pounds, over one pack a day, one injection of 160 units, no appropriate counseling), “resumed smoking”. In addition, the “time after first administration at which the effect starts to wear off / duration of nicotine craving relief” value in assay [2] (listed as Corticotrophins) is “fifty and one hundred”; in assay [2] (listed as corticotrophins) it was “About seventy two”. For the same substance, in assay [2] (given to smokers intramuscularly), the “effect on craving for nicotine” value is “dramatically reduce the craving for nicotine”. In addition, the “patients who start smoking again” value in assay [2] (one administration (Bourne treatment), after about thirty days) was “thirty to sixty”. The “duration of reduced cravings for nicotine after one administration” value in assay [2] (one administration (Bourne treatment)) is “thirty”.
